Reference: patent publication US6605638B1, “Use of branched chain fatty acids and derivatives thereof for inhibition of P-glycoprotein” (D-Pharm Limited, priority 2000, dated 2003)

Assays:
MES-SA/Dx5 cells = assay: MTT assay of doxorubicin toxicity in multi-drug resistant cells; settings: for % Toxicity: alone, 72 hours
P-glycoprotein [1] = molecular target: T1, P-glycoprotein (Bos taurus, UniProt A0A3Q1MB23); assay: Vincristine transport/clearance across endothelial cell monolayers, in vitro BBB co-culture model; assay type: cell-based, bovine; set-up: P-glycoprotein is expressed in cultured endothelial cells; endogenous in cells; host or cells: primary bovine brain capillary endothelial cells, co-cultured with newborn rat astrocytes in the lower compartment
T1 sequence (A0A3Q1MB23 1-1267): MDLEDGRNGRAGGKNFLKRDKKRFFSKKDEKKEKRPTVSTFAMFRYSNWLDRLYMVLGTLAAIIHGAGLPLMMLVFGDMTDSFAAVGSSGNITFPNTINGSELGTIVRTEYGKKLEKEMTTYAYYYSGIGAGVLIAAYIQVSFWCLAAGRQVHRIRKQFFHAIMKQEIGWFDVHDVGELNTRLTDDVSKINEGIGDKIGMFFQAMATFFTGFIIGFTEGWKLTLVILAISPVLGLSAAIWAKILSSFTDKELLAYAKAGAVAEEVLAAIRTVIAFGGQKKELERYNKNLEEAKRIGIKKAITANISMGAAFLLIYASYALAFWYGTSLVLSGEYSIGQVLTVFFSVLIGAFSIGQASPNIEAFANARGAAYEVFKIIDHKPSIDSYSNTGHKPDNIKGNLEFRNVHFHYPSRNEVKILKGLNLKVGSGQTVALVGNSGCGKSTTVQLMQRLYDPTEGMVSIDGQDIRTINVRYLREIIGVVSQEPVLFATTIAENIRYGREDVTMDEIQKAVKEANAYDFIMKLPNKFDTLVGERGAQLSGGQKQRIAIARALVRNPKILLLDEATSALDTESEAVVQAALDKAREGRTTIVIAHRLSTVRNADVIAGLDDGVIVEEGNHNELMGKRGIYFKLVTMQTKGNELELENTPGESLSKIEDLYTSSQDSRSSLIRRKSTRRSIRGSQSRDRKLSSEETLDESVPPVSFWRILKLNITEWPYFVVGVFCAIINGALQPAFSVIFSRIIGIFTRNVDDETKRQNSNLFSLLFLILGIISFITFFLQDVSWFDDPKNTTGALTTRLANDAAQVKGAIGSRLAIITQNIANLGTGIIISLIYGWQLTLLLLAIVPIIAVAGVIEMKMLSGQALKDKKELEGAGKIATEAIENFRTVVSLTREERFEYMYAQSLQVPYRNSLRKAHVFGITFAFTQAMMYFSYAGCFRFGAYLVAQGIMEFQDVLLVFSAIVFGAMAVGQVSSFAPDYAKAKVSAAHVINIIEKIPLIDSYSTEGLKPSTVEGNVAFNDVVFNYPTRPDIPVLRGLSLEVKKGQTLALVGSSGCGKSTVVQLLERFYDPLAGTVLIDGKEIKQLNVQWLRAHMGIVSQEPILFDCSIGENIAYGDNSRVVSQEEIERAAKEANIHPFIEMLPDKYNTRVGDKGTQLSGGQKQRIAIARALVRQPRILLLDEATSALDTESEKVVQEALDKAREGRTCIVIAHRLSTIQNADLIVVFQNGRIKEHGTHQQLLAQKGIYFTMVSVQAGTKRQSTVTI

[2] = test system: endothelial cell monolayers; assay: [14C]-sucrose permeability (integrity) of endothelial cell monolayers, in vitro BBB model
P-glycoprotein [3] = molecular target: T1, P-glycoprotein; assay: Vincristine accumulation (uptake) in endothelial cells, in vitro BBB model

## CCCCCCCCCCC(CCC)C(=O)O (stereo not drawn) [DP-3,10, 2-propyldodecanoic acid]
MES-SA/Dx5 cells; 12.5 μg/ml
  % Toxicity: 0.1%

## CCCCCCCCCCCCCCC(CCC)C(=O)O (stereo not drawn) [DP-3,14, 2-propylhexadecanoic acid]
P-glycoprotein [1]; Example 4, even with lowest concentration 0.08 mg/ml, similar to control without cells
  Clearance of vincristine: significant clearance
P-glycoprotein [1]; Example 5, 0.001 mg/ml
  Transport of vincristine: significant increase
P-glycoprotein [1]; Example 5, 0.02 and 0.08 mg/ml
  Transport of vincristine: Larger effects
P-glycoprotein [1]; Example 5 conclusion, low concentration 0.001—0.01 mg/ml
  Transport of vincristine: increase
[2]; 0.01 mg/ml, 48 hours incubation
  Paracellular breakdown (opening of the tight junctions) of endothelial cells: no paracellular breakdown
[2]; Example 4, 0.08 mg/ml, 60 min
  Sucrose permeability of the monolayer: 274%
[2]; Example 4, 0.16 mg/ml, 60 min
  Sucrose permeability of the monolayer: 266%
[2]; Example 4, […], 60 min
  Sucrose permeability of the monolayer: 278%
[2]; Example 5, 0.001 mg/ml
  Sucrose permeability of the monolayer (significant decrease): 66%
[2]; Example 5, 0.005 mg/ml
  Sucrose permeability of the monolayer (significant decrease): 68%
[2]; Example 5, 0.01 mg/ml
  Sucrose permeability of the monolayer: No change
[2]; Example 5, 0.02 mg/ml, 60 min
  Sucrose permeability of the monolayer: 452%
[2]; Example 5, 0.08 mg/ml, 60 min
  Sucrose permeability of the monolayer: 574%
[2]; Example 5 conclusion, 0.001—0.01 mg/ml
  Transport of sucrose (paracellular marker): no increase
P-glycoprotein [3]; Example 4, 0.08 and 0.16 mg/ml, 60 min
  Cellular accumulation of vincristine compared with verapamil: more pronounced than the same effect induced by verapamil
P-glycoprotein [3]; Example 5, 0.001, 0.005 or 0.01 mg/ml, 60 min
  Increase in vincristine uptake compared with verapamil: lower than that observed with verapamil
P-glycoprotein [3]; Example 5, 0.02 or 0.08 mg/ml, 60 minute incubation
  Vincristine accumulation in the cells relative to that caused by verapamil: 2-3 fold

## C#CCC(CCCCCCCCCCCC)C(=O)O (stereo not drawn) [DP-3-yl,12, 2,3-propynyltetradecanoic acid]
MES-SA/Dx5 cells; 3.125 μg/ml
  % Toxicity: 0.48%

## COc1cccc2c1C(=O)c1c(O)c3c(c(O)c1C2=O)C[C@@](O)(C(=O)CO)C[C@@H]3O[C@H]1C[C@H](N)[C@H](O)[C@H](C)O1 [Dox, doxorubicin, reference compound]
MES-SA/Dx5 cells; 0.125 μg/ml
  % Toxicity: 0%
MES-SA/Dx5 cells; calibration experiments
  Concentration up to which MES-SA/Dx5 cells are resistant: ≤ 250 ng/mL

## CCCCCCCC(CCCCCCC)C(=O)O [DP-7,7, 2-heptylnonanoic acid]
MES-SA/Dx5 cells; 3.125 μg/ml
  % Toxicity: 0.1%

## CC[C@]1(O)C[C@H]2CN(CCc3c([nH]c4ccccc34)[C@@](C(=O)OC)(c3cc4c(cc3OC)N(C=O)[C@H]3[C@@](O)(C(=O)OC)[C@H](OC(C)=O)[C@]5(CC)C=CCN6CC[C@]43[C@@H]65)C2)C1 [vincristine, [γ-^3H]Vincristine sulphate, reference compound]
[2]; Example 4, 50 nM vincristine, verapamil 25 μM
  Toxicity for the endothelial cells / integrity of the monolayers: not toxic
[2]; Example 4, with 50 nM vincristine
  Permeability coefficient for [14C]-sucrose (Pesucrose): 1.33±0.08 ×10^−3 cm/min
